Data published in patent US20260217702A1, “NOVEL IMIDAZOQUINOLINES WITH IMMUNOSTIMULATORY EFFECTS” (Synovo GmbH, priority 2022, published 2026).

What was measured:
IFNa relative to TNFa = test: Stimulation of cytokines in vivo (plasma cytokines, cytometric bead array); settings: female C57B6/J mice, i.p., 12 μmol/kg, citrate in saline, EDTA plasma at various times; reference Resiquimod
Method: Female C57B6/J mice ca 18-20g ca. 8 weeks old are treated i.p. with E1 or E13 (citrate in saline) at a dose of12 μmol/kg. The reference substance is Resiquimod. At various times after application blood samples of approximately 25 μl are taken from the tail vein. The resulting EDTA plasma is analysed for cytokines using a cytometric bead array.

CT26 tumor = test: Application in cancer therapy: CT26 tumor in BALBc mice; assay type: in vivo; settings: i.p.
Method: Female BALBc mice carrying the CT26 tumor type are monitored until tumors are 100-150 mm^3 in volume. Animals are treated via injection i.p. with substances formulated at citrate salts in saline solution. Doses for E 1 are 3, 6 and 12 μmol/kg. At 12 μmol/kg, weight loss of ca. 5% is observed within 24 h. […] In a similar format, Female C57B6 mice carrying the MC38 tumor type co-injected with myofibroblasts (5 fibroblasts: 1 tumor cell-50,000, tumor cells) are monitored until tumors are 100-150 mm^3 in volume. Animals are treated via injection i.p. with either Vehicle or a Rat anti-PD-1 antibody (RMP1-14-CP157) 100 μg, or peritumoral 20 or 50 μg every 96 h. Certain groups receive the antibody alone, or receive in addition, E1 6 μmol/kg or E13 6 μmol/kg, other groups receive E1 and E13 alone at the same dose. Weight loss is similar to the study above and is between 5 and 8% of the starting weight for all treatments. Tumors treated with E1 or E13 alone remain static or decrease in size by up to 30% in size for up to 72 h following treatment. Tumors treated with E1 or E13 in combination with antiPD-1 decline (2 from 8) or are eliminated completely (6 from 8 animals) after the third antibody treatment.

| weight loss (CT26 tumor; female BALBc mice with CT26 tumor, citrate salt in saline, 12 μmol/kg, within 24 h) | Structure (SMILES) | secretion of IFNa relative to TNFa (ratio) compared to the reference (IFNa relative to TNFa) | tumor size following treatment (CT26 tumor; CT26 tumors 100-150 mm^3 at start, doses 3, 6 and 12 μmol/kg, for up to 72 h following treatment) |
| --- | --- | --- | --- |
|  | CCCCc1nc2c(N)nc3ccccc3c2n1CCC1CCN(C(=O)CN(C)CC(=O)N(C)[C@H]2C[C@@H](C)O[C@@H](C[C@@H]3[C@@H](C)[C@H](O[C@H]4C[C@@](C)(OC)[C@@H](O)[C@H](C)O4)[C@@H](C)C(=O)O[C@H](CC)[C@@](C)(O)[C@H](O)[C@@H](C)N(C)C[C@H](C)C[C@@]3(C)O)[C@@H]2O)CC1 [Example E13] | higher ratio |  |
| ca. 5% | CCCCc1nc2c(N)nc3ccccc3c2n1CC1CCNCC1 [Example E1, 2-butyl-1-(piperidin-4-ylmethyl)-1H-imidazo[4,5-c]quinolin-4-amine] | higher ratio | remain static in size |
